Test results from US20050049204A1, “Compounds for the treatment of flaviviridae infections” (priority 2003, published 2005).
Where a name gives a salt, the structure may show the parent alone. Read-outs that look alike come from different tables or passages of the source.

Tests used:
[1] = tested on: rRNA in HCV-replicon RNA-containing Huh7 cells; assay: rRNA levels in HCV replicon cells (cellular toxicity), Q-RT-PCR after 96 h; details: 100 μM
Method: HCV replicon cells were seeded in the presence of test compound at approximately 10^3 cells per well in a 96-well plate and incubated for 96 hours. rRNA and HCV RNA were quantified by Q-RT-PCR. ●: HCV RNA levels; ◯: rRNA levels; ▾: HCV RNA levels after correction (=subtraction of rRNA) for cellular toxicity. […] The plots shown are the mean results of at least three independent experiments. EC90 values as given in Table 1 are read from the HCV curves corrected for cellular toxicity.
HCV-replicon RNA-containing Huh7 cells (Clone A cells; Apath, LLC, St. Louis, Mo.) were kept in exponential growth in DMEM media (high glucose, no pyruvate) containing 10% fetal bovine serum, 1× non-essential amino acids (100 units/ml), penicillin-streptomycin (100 μg/ml), glutamine (0.292 mg/ml), and G418 (1,000 μg/ml). Antiviral assays were performed in the same medium without G418. […] Cells were seeded in a 6-well plate at 10^5 cells per well. Candidate antiviral compounds were tested as described (Stuyver, et al. “A ribonucleoside analogue that blocks the replication of bovine viral diarrhea and hepatitis C viruses in culture” Antimicrob. Agents Chemother., January 2003, 47 (1), 244-254). Incubation times differed according to the type of experiment. At the end of the incubation step, cells were counted using the trypan-blue exclusion method, and total cellular RNA was isolated (Rneasy 96 kit, Qiagen, CA). Replicon RNA and an internal control (TaqMan Ribosomal RNA Control Reagents, Applied Biosystems, CA) were amplified in a single-step, multiplex RT-PCR protocol, as recommended by the manufacturer and as described (Stuyver, et al. “A ribonucleoside analogue that blocks the replication of bovine viral diarrhea and hepatitis C viruses in culture” Antimicrob. Agents Chemother., January 2003, 47 (1), 244-254).
Replicon cells were incubated in the absence or presence of these anti-metabolites for 96 hours, after which intracellular rRNA and HCV RNA levels were quantified (Table 1).

[2] = tested on: HCV-replicon RNA-containing Huh7 cells (HCV RNA); assay: HCV replicon assay: HCV RNA quantified by Q-RT-PCR after 96 h of compound exposure; format: cell-based, hepatitis C virus (HCV); details: for EC90: read-out: Corrected HCV RNA EC90; for effect on cytoplasmic HCV RNA metabolism: replicon system; for log reduction at 10 µM: read-out: Corrected HCV RNA log10 reduction at 10 μM; for specific inhibition of the replicon: RNR inhibitors tested
Method: (§1) Incubation times differed according to the type of experiment.

[3] = tested on: HCV replicon RNA in Huh7 cells; assay: HCV RNA levels in replicon cells over a 7-day period; format: cell-based, hepatitis C virus (HCV); details: 20 μM, 7-day period
[4] = tested on: rRNA in HCV replicon Huh7 cells; assay: Reversal studies with natural nucleosides: rRNA; format: cell-based; details: for log10 reduction rRNA: no nucleoside
Method: as §1
(§2) Cells were incubated with the test compound and, simultaneously, the natural ribo- or 2′-deoxy nucleosides (adenosine, guanosine (G), cytidine (C), uridine (U), 2′-deoxycytidine (dC), 2′-deoxyuridine, thymidine, 2′-deoxyguanosine (dG), and 2′-deoxyadenosine) (Table 2).

[5] = tested on: HCV replicon-containing Huh7 cell line; assay: Dynamics of replicon cell growth (cell count) over a 7-day period; details: 20 μM, 7-day period
[6] = tested on: HCV replicon RNA in Huh7 cells; assay: Reversal studies with natural nucleosides: HCV RNA; format: cell-based, hepatitis C virus (HCV); details: for log10 reduction HCV: no nucleoside
Method: as §1, §2

[7] = 10 μM, 96 h, corrected by subtraction of rRNA
[8] = 100 μM, 96 h, corrected by subtraction of rRNA
[9] = 96 h, read from HCV curves corrected for rRNA reduction
[10] = Hepatitis C virus, Huh-7, 96 h, read from HCV curves corrected for rRNA reduction
[11] = Hepatitis C virus, Huh-7, 100 μM, 96 h, corrected by subtraction of rRNA, read-out: Corrected HCV RNA log10 reduction at 100 μM
[12] = Hepatitis C virus, Huh-7, 100 μM, 96 h, read-out: Log10 RNA reduction (100 μM) HCV

## O=c1cnn([C@@H]2O[C@H](CO)[C@@H](O)[C@H]2O)c(=S)[nH]1 [2-thio-6-azauridine]
[1]
  Log10 RNA reduction (100 μM) rRNA: −0.02 ± 0.12 log10
[2]; [7]
  Corrected HCV RNA log10 reduction at 10 μM: 0.12 ± 0.10 log10
[2]; 100 μM, 96 h
  Log10 RNA reduction (100 μM) HCV: 0.16 ± 0.04 log10
[2]; [8]
  Corrected HCV RNA log10 reduction at 100 μM: 0.19 ± 0.09 log10
[2]; [9]
  EC90: > 100 µM
[2]
  effect on cytoplasmic HCV RNA metabolism: little effect

## O=c1[nH]c(=O)n([C@H]2C[C@H](O)[C@@H](CO)O2)cc1F [2′-deoxy-5FU, 2′-deoxy-5-fluorouridine]
[1]
  Log10 RNA reduction (100 μM) rRNA: 0.73 ± 0.35 log10
[2]; [7]
  Corrected HCV RNA log10 reduction at 10 μM: 0.23 ± 0.05 log10
[2]; Hepatitis C virus, Huh-7, 96 h, read-out: Corrected HCV RNA log10 reduction at 100 μM
  log reduction at 100 µM: 0.04 ± 0.25
[2]; [10]
  EC90: > 100 µM

## C[C@@]1(O)[C@H](O)[C@@H](CO)O[C@H]1n1cnc2c(N)ncnc21 [2′C—CH3-A, 2′-C-methyl-adenosine]
[3]
  reducing the HCV RNA levels: very potent
[1]
  Log10 RNA reduction (100 μM) rRNA: 2.96 ± 0.08 log10
[4]; 100 μM
  log10 reduction rRNA: 2.96 ± 0.08 log10
[5]
  effect on cell proliferation: minimal
[2]; Hepatitis C virus, Huh-7, 10 μM, 96 h, corrected by subtraction of rRNA
  log reduction at 10 µM: 2.05
[2]; [11]
  log reduction at 100 µM: -0.64 ± 0.18
[2]; [12]
  log reduction at 100 µM: 2.32 ± 0.11
[2]; [10]
  EC90: < 1 µM
[6]; 100 μM
  log10 reduction HCV: 2.32 ± 0.11 log10

## O=c1cnn([C@@H]2O[C@H](CO)[C@@H](O)[C@H]2O)c(=O)[nH]1 [6-aza uridine, 6-aza-uridine]
[1]
  Log10 RNA reduction (100 μM) rRNA: 0.61 ± 0.18 log10
[2]; [10]
  EC90: > 100 µM
[2]
  effect on cytoplasmic HCV RNA metabolism: little effect

## Nc1ccn([C@@H]2C=C(CO)[C@@H](O)[C@H]2O)c(=O)n1 [CPE-C, cyclopentenyl-cytosine]
[1]
  Log10 RNA reduction (100 μM) rRNA: 1.21 ± 0.16 log10
[4]; 2 μM + C at 50 μM
  log10 reduction rRNA including natural nucleoside: −0.04 ± 0.01 log10
[4]; 2 μM + U at 50 μM
  log10 reduction rRNA including natural nucleoside: 0.32 ± 0.03 log10
[4]; 2 μM
  log10 reduction rRNA: 0.99 ± 0.04 log10
[2]; [10]
  EC90: 2.5 µM
[6]; 2 μM + C at 50 μM
  log10 reduction HCV including natural nucleoside: 0.30 ± 0.06 log10
[6]; 2 μM + U at 50 μM
  log10 reduction HCV including natural nucleoside: 0.58 ± 0.04 log10
[6]; 2 μM
  log10 reduction HCV: 1.76 ± 0.04 log10

## COc1c(C)c2c(c(O)c1CCOP(=O)(O)CP(=O)(O)OC[C@H]1O[C@@H](n3cnc4c(N)ncnc43)[C@H](O)[C@@H]1O)C(=O)OC2 [Compound C2-MAD]
[1]
  Log10 RNA reduction (100 μM) rRNA: 1.00 ± 0.15 log10
[2]; [7]
  Corrected HCV RNA log10 reduction at 10 μM: 0.36 ± 0.21 log10
[2]; 100 μM, 96 h
  Log10 RNA reduction (100 μM) HCV: 1.09 ± 0.21 log10
[2]; [8]
  Corrected HCV RNA log10 reduction at 100 μM: 0.08 ± 0.24 log10
[2]; [9]
  EC90: > 100 µM

## CC(=O)N(O)CCCCCNC(=O)CCC(=O)N(O)CCCCCNC(=O)CCC(=O)N(O)CCCCCN [Deferoxamine, deferoxamine mesylate]
[1]
  Log10 RNA reduction (100 μM) rRNA: 0.92 ± 0.08 log10
[2]; Hepatitis C virus, Huh-7, 96 h
  log reduction at 10 µM: 0.17 ± 0.11
[2]; [11]
  log reduction at 100 µM: 0.08 ± 0.03
[2]; [12]
  log reduction at 100 µM: 1 ± 0.06
[2]; [10]
  EC90: > 100 µM
[2]
  specific inhibition of the replicon: none

## Nc1n[nH]c(N)n1 [Guanazole, guanazole]
[1]
  Log10 RNA reduction (100 μM) rRNA: 0.07 ± 0.03 log10
[2]; 100 μM, 96 h
  Log10 RNA reduction (100 μM) HCV: 0.25 ± 0.11 log10
[2]; [8]
  Corrected HCV RNA log10 reduction at 100 μM: 0.32 ± 0.08 log10
[2]; Hepatitis C virus, Huh-7, 96 h
  EC90: > 100 µM
  log reduction at 10 µM: 0.05 ± 0.08
[2]
  specific inhibition of the replicon: none
